Columns and labels:
[1] = 100 kPa, Liquid, Vibrating tube method
[2] = wn = mass fraction of the nth substance listed; settings: Liquid, Vibrating tube method

CN(CCO)CCO [N-methyldiethanolamine]
[1]
Settings | mass density [kg/m3]
293.15 K | 1039.9
303.15 K | 1032.4
313.15 K | 1024.9
323.15 K | 1017.2
333.15 K | 1009.5
343.15 K | 1001.7
353.15 K | 993.9
363.15 K | 986
373.15 K | 978.28
383.15 K | 970.22
393.15 K | 962.03
403.15 K | 953.71
413.15 K | 945.29
423.15 K | 936.81

CN(CCO)CCO [N-methyldiethanolamine] + O
mass density [kg/m3], [2]
Settings | w1 = 0.5 | w1 = 0.6 | w1 = 0.7 | w1 = 0.8
293.15 K, 101 kPa | 1045.8 | 1052.6 | 1056.1 | 1055.5
303.15 K, 101 kPa | 1039.6 | 1045.8 | 1048.8 | 1048.1
313.15 K, 101 kPa | 1033 | 1038.6 | 1041.3 | 1040.5
323.15 K, 101 kPa | 1026.1 | 1031.2 | 1033.6 | 1032.6
333.15 K, 101 kPa | 1018.9 | 1023.6 | 1025.6 | 1024.6
343.15 K, 101 kPa | 1011.4 | 1015.6 | 1017.4 | 1016.4
353.15 K, 101 kPa | 1003.5 | 1007.4 | 1009 | 1007.9
363.15 K, 101 kPa | 995.3 | 998.9 | 1000.4 | 999.3
373.15 K, 800 kPa | 987 | 990.32 | 991.79 | 990.82
383.15 K, 800 kPa | 978.16 | 981.18 | 982.65 | 981.74
393.15 K, 800 kPa | 968.93 | 971.76 | 973.23 | 972.51
403.15 K, 800 kPa | 959.28 | 962.08 | 963.68 | 963.09
413.15 K, 800 kPa | 949.4 | 952.13 | 953.72 | 953.38
423.15 K, 800 kPa | 939.06 | 941.91 | 943.63 | 943.53

OCCNCCO [diethanolamine] + O
mass density [kg/m3], [2]
Settings | w1 = 0.5 | w1 = 0.6 | w1 = 0.7 | w1 = 0.8
293.15 K, 101 kPa | 1060.7 | 1073.1 | 1082.5 | 1089.6
303.15 K, 101 kPa | 1055.5 | 1067.4 | 1076.5 | 1083.6
313.15 K, 101 kPa | 1050 | 1061.4 | 1070.3 | 1077.4
323.15 K, 101 kPa | 1044.1 | 1055.2 | 1064 | 1070.9
333.15 K, 101 kPa | 1037.9 | 1048.6 | 1057.3 | 1064.2
343.15 K, 101 kPa | 1031.4 | 1041.9 | 1050.5 | 1057.4
353.15 K, 101 kPa | 1024.51 | 1034.7 | 1043.5 | 1050.5
363.15 K, 101 kPa | 1017.38 | 1027.3 | 1036.1 | 1043.1
373.15 K, 800 kPa | 1010.04 | 1020 | 1028.87 | 1035.98
383.15 K, 800 kPa | 1002.15 | 1012.14 | 1020.89 | 1028.08
393.15 K, 800 kPa | 994.94 | 1003.87 | 1012.73 | 1020.14
403.15 K, 800 kPa | 985.63 | 995.45 | 1004.18 | 1012.1
413.15 K, 800 kPa | 976.68 | 986.55 | 995.42 | 1003.23
423.15 K, 800 kPa | 967.44 | 977.38 | 986.45 | 995.43
